# Like-named read-outs stand apart in the source and are kept apart here.
# Assays:
# [1] = target: single-chain tethered dimer of HIV protease (Human immunodeficiency virus 1, UniProt P04585); test: biochemical; format: biochemical
# Method: HIV Protease Inhibition Assay—HPLC Method
# Active protease was prepared as described therein by extraction with 67% acetic acid, dilution 33-fold with water, dialysis against water and then against a “refolding buffer” consisting of 20 mM MES, 1 mM dithiothreitol and 10% glycerol. Protease was stored as a stock preparation at 10 uM in refolding buffer.
# Substrate: Peptide of sequence: aminobenzoyl-Ala-Thr-His-Gln-Val-Tyr-Phe(NO2)-Val-Arg-Lys-Ala containing p-nitrophenylalanine, was prepared by solid phase synthesis as previously described Cheng et al., op.cit. Stock solutions of 2 mM substrate were prepared in DMSO.
# Inhibitory compounds were dissolved in sufficient DMSO to make 3 mM stock solutions. All further dilutions were prepared in “assay buffer”: 1M NaCl, 50 mM MES, pH 5.5, 1 mM EDTA, 1 mM DTT, […] glycerol.
# Enzyme reaction: In a 2 ml screw-cap centrifuge tube were added 50 ul protease (final concentration 0.25 nM) and 0.1 ml inhibitory compound (final concentration […]). After 15 min preincubation at room temperature, the reaction was started with the addition of 0.05 ml substrate (final concentration 5 uM). Incubation was carried out at 30 C. for 1 hr. The reaction was stopped with 1 ml 0.1M ammonium hydroxide.
# HPLC measurement of product formation: The product (aminobenzoyl-Ala-Thr-His-Gln-Val-Tyr) was separated from substrate on a Pharmacia MonoQ anion exchange column. The injection volume was 0.2 ml. The mobile phases were: A (20 mM trisHCl, pH 9.0, 0.02% sodium Azide, 10% acetonitrile), B (20 mM tris HCl, pH 9.0, 0.02% sodium azide, 0.5M ammonium formate, 10% acetonitrile). The mobile phases were pumped at 1 ml/min, with a gradient from 0 to 30% B in 5 min, 100% B for 4 min to wash the column, and a re-equilibration for 4 min. The retention time of the product was 3.6 min. Detection with a Shimadzu model RF535 fluorescence monitor was at 330 nm (excitation) and 430 (emission).
# HIV-1 (RF) in MT-2 cells = test: microbe, parasite or virus in culture; format: cell-based; conditions: HIV-1 infected MT-2 cells, class symbols
# In short: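 Read-out: gag and pol viral RNA captured by 5′-biotinylated oligonucleotides on streptavidin-coated wells, detected with alkaline phosphatase-linked reporter oligonucleotides, calibrated against BH10 in vitro transcripts. Virus stocks (RF, MN, IIIB) come from H9 cultures; MT-2 host cells kept in RPMI 1640, 5% FCS.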
# [2] = HIV protease inhibition, class symbols, read-out: Ki
# [3] = Human immunodeficiency virus 1, MT2, HIV RNA assay, read-out: IC90
SMILES,"Ki [1, 2] [nM]",IC90 (HIV-1 (RF) in MT-2 cells; HIV RNA assay),Ki [1] [nM],IC90 (HIV-1 (RF) in MT-2 cells; [3]) [µg/mL]
O=C1N(Cc2ccc(F)cc2)C(Cc2ccccc2)C(O)C(O)C(Cc2ccccc2)N1CC1CC1 (centres unmarked) [Example 6V],< 10,+++ (+++=<10 μg/mL),–,–
O=C1N(Cc2ccc(Cl)s2)C(Cc2ccccc2)C(O)C(O)C(Cc2ccccc2)N1Cc1ccc(Cl)s1 (centres unmarked) [Example 6F],10 to 1000,+++ (+++=<10 μg/mL),–,–
C=CCN1C(=O)N(CC2CCCC2)C(Cc2ccccc2)C(O)C(O)C1Cc1ccccc1 (centres unmarked) [Example 5B],< 10,+++ (+++=<10 μg/mL),–,–
O=C1NC(Cc2ccccc2)C(O)C(O)C(Cc2ccccc2)N1Cc1ccccc1 (centres unmarked) [Example 6o],–,–,< 10,< 10
Nc1cccc(CN2C(=O)N(Cc3cccc(N)c3)C(Cc3ccccc3)C(O)C(O)C2Cc2ccccc2)c1 (centres unmarked) [Example 6ZI],–,–,< 10,< 10
CCCCN1C(=O)N(CC2CCCC2)C(Cc2ccccc2)C(O)C(O)C1Cc1ccccc1 (centres unmarked) [Example 6J],–,–,< 10,< 10
CCCCN1C(=O)N(CC=C(C)C)C(Cc2ccccc2)C(O)C(O)C1Cc1ccccc1 (centres unmarked) [Example 6I],< 10,+++ (+++=<10 μg/mL),–,–
O=C1N(Cc2ccccc2F)C(Cc2ccccc2)C(O)C(O)C(Cc2ccccc2)N1Cc1ccccc1F (centres unmarked) [Example 6P],–,–,10 to 1000,< 10
[2H]c1c([2H])c([2H])c(C([2H])([2H])N2C(=O)N(C([2H])([2H])c3c([2H])c([2H])c([2H])c([2H])c3[2H])C(Cc3ccccc3)C(O)C(O)C2Cc2ccccc2)c([2H])c1[2H] (centres unmarked) [Example 4H],–,–,< 10,< 10
O=C1N(Cc2ccc(F)c(F)c2)C(Cc2ccccc2)C(O)C(O)C(Cc2ccccc2)N1Cc1ccc(F)c(F)c1 (centres unmarked) [Example 6S],–,–,< 10,< 10
O=C1N(Cc2ccc(Br)cc2)C(Cc2ccccc2)C(O)C(O)C(Cc2ccccc2)N1Cc1ccc(Br)cc1 (centres unmarked) [Example 6ZG],–,–,10 to 1000,< 10
CC(=O)Nc1cccc(CN2C(=O)N(Cc3cccc(NC(C)=O)c3)C(Cc3ccccc3)C(O)C(O)C2Cc2ccccc2)c1 (centres unmarked) [Example 6ZN],–,–,< 10,< 10
O=C1N(Cc2ccccc2)C(Cc2ccccc2)C(O)C(O)C(Cc2ccccc2)N1Cc1ccncc1 (centres unmarked) [Example 4B],–,–,< 10,< 10
O=C1N(Cc2ccc(O)cc2)C(Cc2ccccc2)C(O)C(O)C(Cc2ccccc2)N1CC1CC1 (centres unmarked) [Example 6E],< 10,+++ (+++=<10 μg/mL),–,–
Cc1cccc(CN2C(=O)N(Cc3cccc(C)c3)C(Cc3ccccc3)C(O)C(O)C2Cc2ccccc2)c1 (centres unmarked) [Example 6ZA],–,–,< 10,< 10
COc1ccc(CN2C(=O)N(Cc3ccc(OC)cc3)C(Cc3ccccc3)C(O)C(O)C2Cc2ccccc2)cc1 (centres unmarked) [Example 6M],10 to 1000,+++ (+++=<10 μg/mL),–,–
C=CCN1C(=O)N(Cc2ccncc2)C(Cc2ccccc2)C(O)C(O)C1Cc1ccccc1 (centres unmarked) [Example 5E],–,–,10 to 1000,< 10
O=C1N(CC=Cc2ccccc2)C(Cc2ccccc2)C(O)C(O)C(Cc2ccccc2)N1CC1CC1 (centres unmarked) [Example 4I],–,–,< 10,< 10
O=C1N(CC2CCC2)C(Cc2ccccc2)C(O)C(O)C(Cc2ccccc2)N1CC1CCC1 (centres unmarked) [Example 6G],–,–,< 10,< 10
O=C1N(Cc2ccccn2)C(Cc2ccccc2)C(O)C(O)C(Cc2ccccc2)N1CC1CC1 (centres unmarked) [Example 4N],< 10,+++ (+++=<10 μg/mL),–,–
O=C1N(CC2CCCC2)C(Cc2ccccc2)C(O)C(O)C(Cc2ccccc2)N1CC1CC1 (centres unmarked) [Example 4F],–,–,< 10,< 10
C=CCN1C(=O)N(Cc2ccc3ccccc3n2)C(Cc2ccccc2)C(O)C(O)C1Cc1ccccc1 (centres unmarked) [Example 5D],< 10,+++ (+++=<10 μg/mL),–,–
Cc1ccc(CN2C(=O)N(Cc3ccc(C)cc3)C(Cc3ccccc3)C(O)C(O)C2Cc2ccccc2)cc1 (centres unmarked) [Example 6T],–,–,< 10,< 10
NCc1cccc(CN2C(=O)N(Cc3cccc(CN)c3)C(Cc3ccccc3)C(O)C(O)C2Cc2ccccc2)c1 (centres unmarked) [Example 6ZK],–,–,10 to 1000,10 to 100
CC(C)N1C(=O)N(Cc2ccccn2)C(Cc2ccccc2)C(O)C(O)C1Cc1ccccc1 (centres unmarked) [Example 6L],–,–,10 to 1000,< 10

SMILES,"Ki [1, 2] [nM]",IC90 (HIV-1 (RF) in MT-2 cells; HIV RNA assay),Ki [1] [nM],IC90 (HIV-1 (RF) in MT-2 cells; [3]) [µg/mL]
CCCN1C(=O)N(Cc2ccccc2)C(Cc2ccccc2)C(O)C(O)C1Cc1ccccc1 (centres unmarked) [Example 4G],–,–,< 10,< 10
COc1ccccc1CN1C(=O)N(Cc2ccccc2OC)C(Cc2ccccc2)C(O)C(O)C1Cc1ccccc1 (centres unmarked) [Example 6ZB],–,–,> 1000,10 to 100
O=C1N(Cc2ccccc2)C(Cc2ccccc2)C(O)C(O)C(Cc2ccccc2)N1CC1CCCC1 (centres unmarked) [Example 4E],< 10,+++ (+++=<10 μg/mL),–,–
O=C(O)c1ccc(CN2C(=O)N(Cc3ccc(C(=O)O)cc3)C(Cc3ccccc3)C(O)C(O)C2Cc2ccccc2)cc1 (centres unmarked) [Example 6B],10 to 1000,++ (++=10 to 100 μg/mL),–,–
C=CCN1C(=O)N(CC2CC2)C(Cc2ccccc2)C(O)C(O)C1Cc1ccccc1 (centres unmarked) [Example 3W],< 10,+++ (+++=<10 μg/mL),–,–
CCCCN1C(=O)N(CC2CC2)C(Cc2ccccc2)C(O)C(O)C1Cc1ccccc1 (centres unmarked) [Example 3X],–,–,< 10,< 10
O=C1N(Cc2ccncc2)C(Cc2ccccc2)C(O)C(O)C(Cc2ccccc2)N1CC1CC1 (centres unmarked) [Example 4C],–,–,< 10,< 10
COc1cccc(CN2C(=O)N(Cc3cccc(OC)c3)C(Cc3ccccc3)C(O)C(O)C2Cc2ccccc2)c1 (centres unmarked) [Example 6Q],–,–,< 10,< 10
O=CNc1cccc(CN2C(=O)N(Cc3cccc(NC=O)c3)C(Cc3ccccc3)C(O)C(O)C2Cc2ccccc2)c1 (centres unmarked) [Example 6ZM],–,–,< 10,< 10
O=C1N(Cc2cccnc2)C(Cc2ccccc2)C(O)C(O)C(Cc2ccccc2)N1Cc1cccnc1 (centres unmarked) [Example 5O],–,–,< 10,< 10
COC(=O)c1cccc(CN2C(=O)N(Cc3cccc(C(=O)OC)c3)C(Cc3ccccc3)C(O)C(O)C2Cc2ccccc2)c1 (centres unmarked) [Example 5T],–,–,< 10,< 10
O=C1N(CC2CCCC2)C(Cc2ccccc2)C(O)C(O)C(Cc2ccccc2)N1CC1CCCC1 (centres unmarked) [Example 6H],–,–,< 10,< 10
O=C1N(Cc2cccc(Cl)c2)C(Cc2ccccc2)C(O)C(O)C(Cc2ccccc2)N1CC1CC1 (centres unmarked) [Example 6ZH],< 10,+++ (+++=<10 μg/mL),–,–
CC(C)N1C(=O)N(Cc2ccc(O)cc2)C(Cc2ccccc2)C(O)C(O)C1Cc1ccccc1 (centres unmarked) [Example 5Y],< 10,+++ (+++=<10 μg/mL),–,–
O=C1N(Cc2ccccc2)C(Cc2ccccc2)C(O)C(O)C(Cc2ccccc2)N1Cc1ccc2ccccc2n1 (centres unmarked) [Example 4O],–,–,10 to 1000,< 10
O=C1N(Cc2cccnc2)C(Cc2ccccc2)C(O)C(O)C(Cc2ccccc2)N1CC1CC1 (centres unmarked) [Example 5G],< 10,+++ (+++=<10 μg/mL),–,–
O=C1N(Cc2ccccc2Cl)C(Cc2ccccc2)C(O)C(O)C(Cc2ccccc2)N1Cc1ccccc1Cl (centres unmarked) [Example 6ZD],–,–,10 to 1000,< 10
CCCN1C(=O)N(Cc2ccc3ccccc3c2)C(Cc2ccccc2)C(O)C(O)C1Cc1ccccc1 (centres unmarked) [Example 4T],< 10,+++ (+++=<10 μg/mL),–,–
O=C1N(Cc2cn(Cc3ccccc3)cn2)C(Cc2ccccc2)C(O)C(O)C(Cc2ccccc2)N1Cc1cn(Cc2ccccc2)cn1 (centres unmarked) [Example 6ZP],> 1000,++ (++=10 to 100 μg/mL),–,–
O=C1NC(Cc2ccccc2)C(O)C(O)C(Cc2ccccc2)N1Cc1cccc([N+](=O)[O-])c1 (centres unmarked) [Example 6ZL],–,–,< 10,< 10
O=C1N(CC2CCCCC2)C(Cc2ccccc2)C(O)C(O)C(Cc2ccccc2)N1CC1CCCCC1 (centres unmarked) [Example 3O],10 to 1000,+ (+=>100 μg/mL),–,–
CN(C)CCN1C(=O)N(CCN(C)C)C(Cc2ccccc2)C(O)C(O)C1Cc1ccccc1 (centres unmarked) [Example 6R],–,–,> 1000,> 100
O=C1N(Cc2ccc3ccccc3c2)C(Cc2ccccc2)C(O)C(O)C(Cc2ccccc2)N1Cc1ccc2ccccc2c1 (centres unmarked) [Example 3U],–,–,< 10,< 10
CN(C)CCN1C(=O)N(CCN(C)C)C(Cc2ccccc2)C(O)C(O)C1Cc1ccccc1 (centres unmarked) [Example 6N],> 1000,+ (+=>100 μg/mL),–,–
